Tested on: phospho-myosin light chain 2 (pMLC2) S19
Experiment: pMLC2 flow cytometry assay in mouse whole blood in vitro
Format: cell-based
Conditions: ROCK1/2 inhibitor added to top concentration (30 µM) of BLU4565

CC1=C(C(=O)Nc2cc3cn[nH]c3cc2F)C(c2ccc(C(F)(F)F)cc2)CC(=O)N1 (stereo not shown) [GSK429286A]
further reduction of pMLC2 median fluorescence intensity signal compared with BLU4565 alone: Minimal further reduction
